Results reported in PubChem BioAssay (NCI).
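The compound was tested at five concentrations on cells cultured in 96-well plates, with a 48-hour exposure period. TGI: concentration producing complete growth inhibition.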

What was measured:
Assay in all cases: NCI anticancer screen, dose series, 48 h
[1] = tested on: SK-MEL-5 melanoma
[2] = tested on: 786-0 renal
[3] = tested on: SF-295 CNS
[4] = tested on: HL-60(TB) leukemia
[5] = tested on: MDA-MB-231 breast
[6] = tested on: NCI-H226 lung
[7] = tested on: K-562 leukemia
[8] = tested on: HOP-62 NSCLC
[9] = tested on: SK-MEL-2 melanoma
[10] = tested on: NCI-H522 lung
[11] = tested on: MCF7 breast
[12] = tested on: PC-3 prostate
[13] = tested on: TK-10 renal
[14] = tested on: IGROV1 ovarian
[15] = tested on: HS 578T breast
[16] = tested on: BT-549 breast
[17] = tested on: SK-OV-3 ovarian
[18] = tested on: EKVX NSCLC
[19] = tested on: SNB-19 CNS
[20] = tested on: COLO 205 colon
[21] = tested on: NCI-H23 lung
[22] = tested on: LOX IMVI melanoma
[23] = tested on: MOLT-4 leukemia
[24] = tested on: NCI-H460 lung
[25] = tested on: U251 CNS
[26] = tested on: KM12 colon
[27] = tested on: MDA-N
[28] = tested on: HT29 colon
[29] = tested on: SN12C renal
[30] = tested on: ACHN renal
[31] = tested on: OVCAR-5 ovarian
[32] = tested on: RPMI-8226 leukemia
[33] = tested on: SW-620 colon
[34] = tested on: SF-268 CNS
[35] = tested on: CCRF-CEM leukemia
[36] = tested on: NCI/ADR-RES ovarian
[37] = tested on: OVCAR-8 ovarian
[38] = tested on: SR leukemia
[39] = tested on: A498 renal
[40] = tested on: A549 NSCLC
[41] = tested on: DU-145 prostate
[42] = tested on: HCT-15 colon
[43] = tested on: MDA-MB-435
[44] = tested on: SNB-75 CNS
[45] = tested on: M14 melanoma
[46] = tested on: SF-539 CNS
[47] = tested on: SK-MEL-28 melanoma
[48] = tested on: UACC-257 melanoma
[49] = tested on: HCC-2998 colon
[50] = tested on: HCT-116 colon
[51] = tested on: UO-31 renal
[52] = tested on: CAKI-1 renal
[53] = tested on: HOP-92 NSCLC
[54] = tested on: OVCAR-3 ovarian
[55] = tested on: T-47D breast
[56] = tested on: OVCAR-4 ovarian
[57] = tested on: UACC-62 melanoma
[58] = tested on: MALME-3M melanoma
[59] = tested on: RXF 393 renal

`CC(C)(C)OC(=O)NC(Cc1ccc(OC(C)(C)C)cc1)C(=O)N[C@H]1CC[C@H](C(=O)O)C1` (stereo partly specified) was tested, and the TGI [1] was > 100 µM, the TGI [2] was > 100 µM and the TGI [3] was > 100 µM. For the same compound, the TGI [4] was > 100 µM, the TGI [5] was > 100 µM and the TGI [6] was > 100 µM. The TGI [7] was > 100 µM, the TGI [8] was > 100 µM and the TGI [9] was > 100 µM. The TGI [10] was > 100 µM, the TGI [11] was > 100 µM and the TGI [12] was > 100 µM. For the same compound, the TGI [13] was > 100 µM, the TGI [14] was > 100 µM and the TGI [15] was > 100 µM. For the same compound, the TGI [16] was > 100 µM, the TGI [17] was > 100 µM and the TGI [18] was > 100 µM. The TGI [19] was > 100 µM, the TGI [20] was > 100 µM and the TGI [21] was > 100 µM. For the same compound, the TGI [22] was > 100 µM, the TGI [23] was > 100 µM and the TGI [24] was > 100 µM. The TGI [25] was > 100 µM, the TGI [26] was > 100 µM and the TGI [27] was > 100 µM. For the same compound, the TGI [28] was > 100 µM, the TGI [29] was > 100 µM and the TGI [30] was > 100 µM. The TGI [31] was > 100 µM, the TGI [32] was > 100 µM and the TGI [33] was > 100 µM. For the same compound, the TGI [34] was > 100 µM, the TGI [35] was > 100 µM and the TGI [36] was > 100 µM. For the same compound, the TGI [37] was > 100 µM, the TGI [38] was > 100 µM and the TGI [39] was > 100 µM. The TGI [40] was > 100 µM, the TGI [41] was > 100 µM and the TGI [42] was > 100 µM. For the same compound, the TGI [43] was > 100 µM, the TGI [44] was > 100 µM and the TGI [45] was > 100 µM. The TGI [46] was > 100 µM, the TGI [47] was > 100 µM and the TGI [48] was > 100 µM. The TGI [49] was > 100 µM and the TGI [50] was > 100 µM.
With `O=c1nc(N2CCCCC2)sc2[nH]c3ccccc3c12` the TGI [1] was > 100 µM, the TGI [51] was 54.9 µM and the TGI [2] was > 100 µM. For the same compound, the TGI [52] was > 100 µM, the TGI [3] was > 100 µM and the TGI [4] was > 100 µM. For the same compound, the TGI [5] was > 100 µM, the TGI [7] was > 100 µM and the TGI [8] was > 100 µM. The TGI [9] was > 100 µM, the TGI [10] was > 100 µM and the TGI [12] was > 100 µM. The TGI [53] was > 100 µM, the TGI [13] was > 100 µM and the TGI [14] was > 100 µM. For the same compound, the TGI [15] was > 100 µM, the TGI [16] was > 100 µM and the TGI [17] was > 100 µM. For the same compound, the TGI [18] was > 100 µM, the TGI [19] was > 100 µM and the TGI [20] was > 100 µM. The TGI [21] was 26.2 µM, the TGI [22] was > 100 µM and the TGI [23] was > 100 µM. For the same compound, the TGI [24] was > 100 µM, the TGI [25] was > 100 µM and the TGI [26] was > 100 µM. For the same compound, the TGI [27] was > 100 µM, the TGI [28] was > 100 µM and the TGI [29] was > 100 µM. For the same compound, the TGI [30] was > 100 µM, the TGI [31] was 24.8 µM and the TGI [32] was > 100 µM. The TGI [33] was > 100 µM, the TGI [34] was > 100 µM and the TGI [54] was > 100 µM. For the same compound, the TGI [36] was 25.7 µM, the TGI [37] was > 100 µM and the TGI [38] was > 100 µM. The TGI [39] was > 100 µM, the TGI [40] was > 100 µM and the TGI [55] was > 100 µM. For the same compound, the TGI [41] was > 100 µM, the TGI [56] was > 100 µM and the TGI [42] was > 100 µM. For the same compound, the TGI [43] was > 100 µM, the TGI [44] was > 100 µM and the TGI [45] was > 100 µM. For the same compound, the TGI [46] was > 100 µM, the TGI [57] was > 100 µM and the TGI [47] was > 100 µM. For the same compound, the TGI [48] was > 100 µM and the TGI [58] was > 100 µM.
Compound `C=C(C)C1Cc2c(cc3c(c2O)c(=O)c2ccccc2n3C)O1` (stereo unspecified) has a TGI [1] of 8.02 µM, a TGI [51] of 4.01 µM and a TGI [2] of 2.91 µM. For the same compound, the TGI [52] was 11.2 µM, the TGI [3] was 18.2 µM and the TGI [5] was 6.72 µM. It also gave a TGI [6] of 6.77 µM, a TGI [8] of 25.2 µM and a TGI [9] of 26.7 µM. For the same compound, the TGI [11] was 17 µM, the TGI [12] was 19.3 µM and the TGI [53] was 21.3 µM. For the same compound, the TGI [13] was 27 µM, the TGI [14] was 4.16 µM and the TGI [15] was 28.7 µM. It also gave a TGI [16] of 3.28 µM, a TGI [17] of 13.5 µM and a TGI [18] of 35.3 µM. For the same compound, the TGI [19] was 12 µM, the TGI [20] was 12.3 µM and the TGI [21] was 5.34 µM. It also gave a TGI [23] of 1.99 µM, a TGI [24] of 19 µM and a TGI [25] of 12.7 µM. For the same compound, the TGI [26] was 5.75 µM, the TGI [27] was 12.2 µM and the TGI [28] was 7.32 µM. The TGI [29] was 7.52 µM, the TGI [30] was 35.7 µM and the TGI [31] was 26.1 µM. It also gave a TGI [32] of 9.72 µM, a TGI [33] of 5.68 µM and a TGI [34] of 14.2 µM. The TGI [54] was 27.9 µM, the TGI [36] was 8.19 µM and the TGI [37] was 5.67 µM. It also gave a TGI [38] of 4.95 µM, a TGI [39] of 22.1 µM and a TGI [40] of 24.9 µM. The TGI [55] was 21 µM, the TGI [56] was 22.3 µM and the TGI [42] was 9.93 µM. The TGI [43] was 20.7 µM, the TGI [44] was 17 µM and the TGI [45] was 10.6 µM. For the same compound, the TGI [46] was 5.99 µM, the TGI [57] was 7.57 µM and the TGI [47] was 24.9 µM. The TGI [59] was 8.52 µM, the TGI [48] was 30.7 µM and the TGI [49] was 28.3 µM. It also gave a TGI [50] of 4.94 µM and a TGI [58] of 3.41 µM.
`COC(=O)C(Cc1c(-c2[nH]c3ccccc3c2CC(NC(C)=O)C(=O)OC)[nH]c2ccccc12)NC(C)=O` (stereo unspecified) was tested, and the TGI [1] was > 100 µM, the TGI [51] was > 100 µM and the TGI [2] was > 100 µM. The TGI [52] was > 100 µM, the TGI [3] was > 100 µM and the TGI [4] was > 100 µM. The TGI [5] was > 100 µM, the TGI [6] was > 100 µM and the TGI [7] was > 100 µM. The TGI [8] was > 100 µM, the TGI [9] was > 100 µM and the TGI [10] was > 100 µM. For the same compound, the TGI [12] was > 100 µM, the TGI [53] was > 100 µM and the TGI [13] was > 100 µM. For the same compound, the TGI [14] was > 100 µM, the TGI [15] was > 100 µM and the TGI [16] was > 100 µM. For the same compound, the TGI [17] was > 100 µM, the TGI [18] was > 100 µM and the TGI [19] was > 100 µM. For the same compound, the TGI [20] was > 100 µM, the TGI [21] was > 100 µM and the TGI [22] was > 100 µM. For the same compound, the TGI [23] was > 100 µM, the TGI [24] was > 100 µM and the TGI [25] was > 100 µM. The TGI [26] was > 100 µM, the TGI [27] was > 100 µM and the TGI [28] was > 100 µM. For the same compound, the TGI [29] was > 100 µM, the TGI [30] was > 100 µM and the TGI [31] was > 100 µM. The TGI [32] was > 100 µM, the TGI [33] was > 100 µM and the TGI [34] was > 100 µM. For the same compound, the TGI [35] was > 100 µM, the TGI [54] was > 100 µM and the TGI [36] was > 100 µM. For the same compound, the TGI [37] was > 100 µM, the TGI [39] was > 100 µM and the TGI [40] was > 100 µM. For the same compound, the TGI [55] was > 100 µM, the TGI [41] was > 100 µM and the TGI [42] was > 100 µM. For the same compound, the TGI [43] was > 100 µM, the TGI [44] was > 100 µM and the TGI [45] was > 100 µM. The TGI [46] was > 100 µM, the TGI [57] was > 100 µM and the TGI [47] was > 100 µM. The TGI [59] was > 100 µM, the TGI [48] was > 100 µM and the TGI [50] was > 100 µM. For the same compound, the TGI [58] was > 100 µM.
